Earlier results on 2 molecules are cited in patent publication US5288707A, “Borolysine peptidomimetics” (Sandoz Ltd., priority 1990, dated 1994).

For one data set, the target named is thrombin (Homo sapiens, UniProt P00734). To be noted: reversible and irreversible inhibitors, value given as a range of magnitude.
For data set [1] the following is noted: in vivo.

Molecules are shown by their SMILES.

Regarding `NC(N)=NCCC[C@H](NC(=O)[C@@H]1CCCN1C(=O)[C@H](N)Cc1ccccc1)C(=O)CCl` [D-Phe-Pro-Arg-CH2 Cl], on thrombin, the inhibition in vitro is ~10^-8 M.

For `N=C(N)NCCC[C@@H](C=O)NC(=O)[C@@H]1CCCN1C(=O)[C@H](N)Cc1ccccc1` [D-Phe-Pro-Arginal], at thrombin, the inhibition in vitro is recorded as ~10^-8 M. Besides, the LD50 value result in data set [1] was “quite a low”.
